Tested on: 3D7-MR4 trophozoite parasite-infected RBCs
Assay: Metabolomic profiling (hydrophilic metabolite changes, UHPLC-MS)
Assay type: cell-based, Plasmodium falciparum

`CC(C)(C)c1ccc2c(c1)CN(Cc1ccc(Cl)cc1)CO2` [MMV000442] was tested, and the “peptide levels (hemoglobin catabolism signature)” value (10 × IC50^72h, 2.5 hr, trophozoites) was “decreased peptide levels”, the “Log2(fold changes) 1_3-Bisphosphoglyceric acid” value (metabolite 1_3-Bisphosphoglyceric acid, log2 fold change) was 0.0000 and the “Log2(fold changes) 2-Hydroxy-2-methylbutanedioic acid” value (metabolite 2-Hydroxy-2-methylbutanedioic acid, log2 fold change) was 0.0000. For the same molecule, the “Log2(fold changes) 2-Isopropylmalic acid” value (metabolite 2-Isopropylmalic acid, log2 fold change) was 0.0000, the “Log2(fold changes) 2-dehydro-D-gluconate” value (metabolite 2-dehydro-D-gluconate, log2 fold change) was 0.0187 and the “Log2(fold changes) 2-oxo-4-methylthiobutanoate” value (metabolite 2-oxo-4-methylthiobutanoate, log2 fold change) was 0.0000. The “Log2(fold changes) 2_3-Diphosphoglyceric acid” value (metabolite 2_3-Diphosphoglyceric acid, log2 fold change) was 0.0000, the “Log2(fold changes) 3-phosphoglycerate” value (metabolite 3-phosphoglycerate, log2 fold change) was 0.1472 and the “Log2(fold changes) 3-phosphoserine” value (metabolite 3-phosphoserine, log2 fold change) was -0.0388. The “Log2(fold changes) 4-Pyridoxic acid” value (metabolite 4-Pyridoxic acid, log2 fold change) was 0.3454, the “Log2(fold changes) 4-aminobutyrate” value (metabolite 4-aminobutyrate, log2 fold change) was -0.2887 and the “Log2(fold changes) 4-phosphopantetheine” value (metabolite 4-phosphopantetheine, log2 fold change) was 0.0000. The “Log2(fold changes) 4-phosphopantothenate” value (metabolite 4-phosphopantothenate, log2 fold change) was -0.1668, the “Log2(fold changes) 5-aminopentanoic acid” value (metabolite 5-aminopentanoic acid, log2 fold change) was -0.5922 and the “Log2(fold changes) 5-methyl-THF” value (metabolite 5-methyl-THF, log2 fold change) was 0.0000. For the same molecule, the “Log2(fold changes) 5-phosphoribosyl-1-pyrophosphate” value (metabolite 5-phosphoribosyl-1-pyrophosphate, log2 fold change) was 0.0000, the “Log2(fold changes) 6-phospho-D-gluconate” value (metabolite 6-phospho-D-gluconate, log2 fold change) was -0.0694 and the “Log2(fold changes) ADP-D-glucose” value (metabolite ADP-D-glucose, log2 fold change) was 0.0000. The “Log2(fold changes) Acetyl-glycine” value (metabolite Acetyl-glycine, log2 fold change) was 0.0000, the “Log2(fold changes) Acetyllysine” value (metabolite Acetyllysine, log2 fold change) was -2.4239 and the “Log2(fold changes) Aminoadipic acid” value (metabolite Aminoadipic acid, log2 fold change) was 0.6779. For the same molecule, the “Log2(fold changes) CDP” value (metabolite CDP, log2 fold change) was -0.1566, the “Log2(fold changes) CDP-choline” value (metabolite CDP-choline, log2 fold change) was 0.0000 and the “Log2(fold changes) CDP-ethanolamine” value (metabolite CDP-ethanolamine, log2 fold change) was 0.0000. For the same molecule, the “Log2(fold change) of CMP” value (metabolite CMP) was -0.4256, the “Log2(fold change) of CTP” value (metabolite CTP) was 0.0000 and the “Log2(fold changes) Citraconic acid” value (metabolite Citraconic acid, log2 fold change) was 0.0000. For the same molecule, the “Log2(fold change) of D-glucarate” value (metabolite D-glucarate) was 0.0000, the “Log2(fold change) of D-gluconate” value (metabolite D-gluconate) was 0.0000 and the “Log2(fold change) of D-glucosamine-1/6-phosphate” value (metabolite D-glucosamine-1/6-phosphate) was 0.0000. For the same molecule, the “Log2(fold change) of D-sedoheptulose-1/7-phosphate” value (metabolite D-sedoheptulose-1/7-phosphate) was 0.0894, the “Log2(fold change) of DL-Pipecolic Acid” value (metabolite DL-Pipecolic Acid) was -2.3554 and the “Log2(fold change) of DLH” value (metabolite DLH) was -3.0002. The “Log2(fold change) of DLS” value (metabolite DLS) was 0.0000, the “Log2(fold change) of Decanoyl-CoA” value (metabolite Decanoyl-CoA) was 0.0000 and the “Log2(fold change) of EV” value (metabolite EV) was 0.0000. For the same molecule, the “Log2(fold change) of FAD” value (metabolite FAD) was 0.0825, the “Log2(fold change) of FMN” value (metabolite FMN) was 0.2444 and the “Log2(fold change) of G3P/DHAP” value (metabolite G3P/DHAP) was 0.3715. The “Log2(fold change) of GDP” value (metabolite GDP) was -0.4064, the “Log2(fold change) GMP” value (metabolite GMP) was -0.5023 and the “Log2(fold change) GTP” value (metabolite GTP) was 0.0000. The “Log2(fold change) HVDD” value (metabolite HVDD) was 0.0000, the “Log2(fold change) Hexose” value (metabolite Hexose) was 0.5242 and the “Log2(fold change) Hydroxyisocaproic acid” value (metabolite Hydroxyisocaproic acid) was 0.0000. The “Log2(fold change) IDP” value (metabolite IDP) was 0.0000, the “Log2(fold change) IMP” value (metabolite IMP) was -0.3808 and the “Log2(fold change) Inositol” value (metabolite Inositol) was 0.0000. For the same molecule, the “Log2(fold change) Isopentyl-PP” value (metabolite Isopentyl-PP) was 0.0000, the “Log2(fold change) L-arginino-succinate” value (metabolite L-arginino-succinate) was -0.9153 and the “Log2(fold change) LD” value (metabolite LD) was 0.0782. For the same molecule, the “Log2(fold change) Myristoyl/tetradecanoyl-CoA” value (metabolite Myristoyl/tetradecanoyl-CoA) was 0.0000, the “Log2(fold change) N-Acetyl-L-alanine” value (metabolite N-Acetyl-L-alanine) was -0.8745 and the “Log2(fold change) N-acetyl-L-ornithine” value (metabolite N-acetyl-L-ornithine) was -2.0207. The “Log2(fold change) N-acetyl-glucosamine-1/6-phosphate” value (metabolite N-acetyl-glucosamine-1/6-phosphate) was 0.0000, the “Log2(fold change) N-acetyl-glutamate” value (metabolite N-acetyl-glutamate) was 0.2896 and the “Log2(fold change) N-acetyl-glutamine” value (metabolite N-acetyl-glutamine) was -0.5645. For the same molecule, the “Log2(fold change) N-carbamoyl-L-aspartate” value (metabolite N-carbamoyl-L-aspartate) was -1.7487, the “Log2(fold change) NAD+” value (metabolite NAD+) was -0.0829 and the “Log2(fold change) NADH” value (metabolite NADH) was 0.7233. The “Log2(fold change) NADP+” value (metabolite NADP+) was 0.2722, the “Log2(fold change) NADPH” value (metabolite NADPH) was 0.0000 and the “Log2(fold change) O-acetyl-L-serine” value (metabolite O-acetyl-L-serine) was 0.0000. The “Log2(fold change) Octoluse 8/1P” value (metabolite Octoluse 8/1P) was 0.0000, the “Log2(fold change) Octoluse Bisphosphate” value (metabolite Octoluse Bisphosphate) was -0.1456 and the “Log2(fold change) PD” value (metabolite PD) was -3.3951. The “Log2(fold change) PE” value (metabolite PE) was -2.6495, the “Log2(fold change) PEE” value (metabolite PEE) was -3.0239 and the “Log2(fold change) PEEK” value (metabolite PEEK) was -4.4264. The “Log2(fold change) PVNF” value (metabolite PVNF) was -3.4246, the “Log2(fold change) Pyroglutamic acid” value (metabolite Pyroglutamic acid) was -0.3004 and the “Log2(fold change) Pyrophosphate” value (metabolite Pyrophosphate) was 0.0000. For the same molecule, the “Log2(fold change) Ribose-5-phosphate” value (metabolite Ribose-5-phosphate) was -0.0687, the “Log2(fold change) S-adenosyl-L-homocysteine” value (metabolite S-adenosyl-L-homocysteine) was -0.3299 and the “Log2(fold change) S-adenosyl-L-methioninamine” value (metabolite S-adenosyl-L-methioninamine) was 0.0000. For the same molecule, the “Log2(fold change) S-adenosyl-L-methionine” value (metabolite S-adenosyl-L-methionine) was 0.0000, the “Log2(fold change) S-methyl-5'-thioadenosine” value (metabolite S-methyl-5'-thioadenosine) was 0.0000 and the “Log2(fold change) SD” value (metabolite SD) was 0.0000. For the same molecule, the “Log2(fold change) SDL” value (metabolite SDL) was 0.0000, the “Log2(fold change) SID” value (metabolite SID) was 0.0000 and the “Log2(fold change) Sedoheptulose bisphosphate” value (metabolite Sedoheptulose bisphosphate) was -0.0816. The “Log2(fold change) Thiamine pyrophosphate” value (metabolite Thiamine pyrophosphate) was 0.0000, the “Log2(fold changes) UDP-D-glucose” value (metabolite UDP-D-glucose, log2 fold change) was 0.1178 and the “Log2(fold changes) UDP-D-glucuronate” value (metabolite UDP-D-glucuronate, log2 fold change) was 0.0275. For the same molecule, the “Log2(fold changes) UDP-N-acetyl-glucosamine” value (metabolite UDP-N-acetyl-glucosamine, log2 fold change) was -0.1255, the “Log2(fold changes) UDP” value (metabolite UDP, log2 fold change) was -0.3330 and the “Log2(fold changes) UMP” value (metabolite UMP, log2 fold change) was -0.0965. The “Log2(fold changes) UTP” value (metabolite UTP, log2 fold change) was 0.0000, the “Log2(fold changes) VD” value (metabolite VD, log2 fold change) was 0.0000 and the “Log2(fold changes) Xanthurenic acid” value (metabolite Xanthurenic acid, log2 fold change) was 0.0000. The “Log2(fold changes) a-ketoglutarate” value (metabolite a-ketoglutarate, log2 fold change) was -0.2716, the “Log2(fold changes) acetyl-CoA” value (metabolite acetyl-CoA, log2 fold change) was 0.0000 and the “Log2(fold changes) acetyl-aspartate” value (metabolite acetyl-aspartate, log2 fold change) was -0.0302. For the same molecule, the “Log2(fold changes) acetylphosphate” value (metabolite acetylphosphate, log2 fold change) was 0.6335, the “Log2(fold changes) aconitate” value (metabolite aconitate, log2 fold change) was -0.3057 and the “Log2(fold changes) adenine” value (metabolite adenine, log2 fold change) was 0.0000. For the same molecule, the “Log2(fold changes) adenosine 5'-phosphosulfate” value (metabolite adenosine 5'-phosphosulfate, log2 fold change) was -0.0782.
